pIC50: −log10 of the molar value.
Legend:
[1] = system: HeLa; experiment: Antitumor activity against HeLa cell line at 10 uM by MTT assay; format: functional; conditions: Homo sapiens
[2] = system: HeLa; experiment: Antitumor activity against HeLa cell line by MTT assay; format: functional, cell-based; conditions: Homo sapiens
[3] = system: HeLa; experiment: Antitumor activity against HeLa cell line at 10 nM by MTT assay; format: functional; conditions: Homo sapiens
[4] = system: WEHI-164; experiment: Antitumor activity against WEHI 164 cell; format: functional, cell-based; conditions: Mus musculus
[5] = system: HeLa; experiment: Antitumor activity against HeLa cell line at 100 nM by MTT assay; format: functional; conditions: Homo sapiens
[6] = system: HeLa; experiment: Antitumor activity against HeLa cell line at 1 uM by MTT assay; format: functional; conditions: Homo sapiens

Structure (SMILES) | inhibition at 10 µM [1] | pIC50 [2] | inhibition at 0.01 µM [3] | pIC50 [4] | inhibition at 0.1 µM [5] | inhibition at 1 µM [6]
CC(=O)N[C@H]1[C@H](O[C@H]2CC[C@]3(C)[C@H]4CC=C5[C@@H]6CC(C)(C)CC[C@]6(C(=O)O)CC[C@@]5(C)[C@]4(C)CC[C@H]3C2(C)C)O[C@H](CO)[C@H](O[C@@H]2O[C@H](CO)[C@@H](O)[C@H](O)[C@H]2O)[C@@H]1O[C@@H]1O[C@H](CO)[C@H](O)[C@H](O)[C@H]1O [LOTOIDOSIDE D] | 56.4% | 5.56 | 34.4% | 6.44 | 32.8% | 35.3%
CC(=O)N[C@H]1[C@H](O[C@H]2CC[C@]3(C)[C@H]4CC=C5[C@@H]6CC(C)(C)CC[C@]6(C(=O)O)CC[C@@]5(C)[C@]4(C)CC[C@H]3C2(C)C)O[C@H](CO)[C@@H](O)[C@@H]1O[C@@H]1O[C@H](CO)[C@H](O)[C@H](O)[C@H]1O [LOTOIDOSIDE E] | 42% | < 5.00 | 0.79% | 7.52 | 1.71% | 10%
